Experimental data reported in patent US9844546B2, “Antibody against human HIF hydroxylase” (OXFORD UNIVERSITY INNOVATION LIMITED, priority 2001, dated 2017).
Where two headings read alike, the source gives them in different places. *1 amine or outer side, *2 acyl side, *3 side chain or, on linkers, in order; H or OH if unused. Where a SMILES comes first, the peptide text is derived from it. Bridges are numbered along the chain shown (N, C = ends). Roman numbers before positions name the chains, in order. [ ]: non-standard residue; d: D form. Actinocin(9to1) = Cc1c2oc3c(C)ccc(C(=O)[*:1])c3nc-2c(C(=O)[*:2])c(N)c1=O; NMeV = CN[C@H](C(=O)O)C(C)C; Sar = CNCC(=O)O

Columns and labels:
EGLN-2 and EGLN-3 = test: Modification and pVHL binding assay with reticulocyte lysate programmed with EGLN-2 or EGLN-3; type: biochemical, human; settings: desferrioxamine 200 μM, cobaltous chloride 200 μM
Excerpt: Protein containing HIF-1 sequence (amino acids 549-582) was generated in a reticulocyte in vitro transcription translation reaction in the presence of 100 micromolar desferrioxamine, retrieved and then exposed to […] translates containing the putative enzymes as described above. These proteins contain the critical proline (564) which can be modified by hydroxylation and which enables recognition by von Hippel Lindau tumour suppressor protein (pVHL).
The modification of the HIF-1 sequence was assayed by the binding of the HIF-1 to radiolabelled pVHL, generated by in vitro transcription and translation of a pcDNA3 vector containing the human wild type pVHL open reading frame in a rabbit reticulocyte lysate in the presence of ^35S-methionine.
Modification and pVHL binding assays were performed as described above. Rabbit reticulocyte lysate was programmed with pcDNA3 based plasmids containing no insert, an insert encoding the full open reading frame of the human homologue of C. elegans Egl-9 known as EGLN-2, or an insert encoding the full open reading frame of the human homologue known as EGLN-3. Modification was performed in the absence of additives, in the presence of oxalylglycine, oxalylglycine plus 2-oxoglutarate, 200 μM desferrioxamine or 200 μM cobaltous chloride.

HIF-α/pVHL interaction = test: Interaction of HIF-1α and pVHL.HA reticulocyte IVTTs, anti-HA co-immunoprecipitation; type: biochemical, human; settings: 100 μM added to the HIF-1α IVTT
Protocol: ^35S-Methionine labelled […] subunits and pVHL.HA were produced separately by IVTT (in vitro transcription and translation) in reticulocyte lysates. IVTTs were performed under different conditions, mixed, and assayed for interaction by anti-HA co-immunoprecipitation. These in vitro assays allowed analysis of the HIFα/pVHL interaction using the recombinant proteins.
Labelled HIF-1α and pVHL.HA were generated separately in reticulocyte lysates (IVTT), in the presence or absence of Co (II), desferrioxamine, or Fe(II). Lysates were mixed in various combinations, and interactions assayed by anti-HA immunoprecipitation.
• 1. G. L. Semenza, Genes Dev 14, 1983-91. (2000). • 2. N. V. Iyer, et al., Genes Dev. 12, 149-162 (1997). • 3. E. Maltepe, J. V. Schmidt, D. Baunoch, C. A. Bradfield, M. C. Simon, Nature 386, 403-407 (1997). • 4. G. L. Wang, B.-H. Jiang, E. A. Rue, G. L. Semenza, Proc. Natl. Acad. Sci. USA 92, 5510-5514 (1995). • 5. S. Salceda, J. Caro, J. Biol. Chem. 272, 22642-22647 (1997). • 6. L. E. Huang, J. Gu, M. Schau, H. F. Bunn, Proc. Natl. Acad. Sci. USA 95, 7987-7992 (1998). • 7. M. S. Wiesener, et al., Blood 92, 2260-2268 (1998). • 8. P. H. Maxwell, et al., Nature 399, 271-275 (1999). • 9. K. Iwai, et al., Proc. Natl. Acad. Sci. USA 96, 12436-12441 (1999). • 10. J. Lisztwan, G. Imbert, C. Wirbelauer, M. Gstaiger, W. Krek, Genes Dev 13, 1822-33 (1999). • 11. M. E. Cockman, et al., J Biol Chem (2000). • 12. M. Ohh, et al., Nat Cell Biol 2, 423-7. (2000). • 13. T. Kamura, et al., Proc Natl Acad Sci USA 97, 10430-5. (2000). • 14. K. Tanimoto, Y. Makino, T. Pereira, L. Poellinger, Embo J 19, 4298-309. (2000). • 15. M. A. Goldberg, S. P. Dunning, H. F. Bunn, Science 242, 1412-1415 (1988). • 16. G. L. Wang, G. L. Semenza, Blood 82, 3610-3615 (1993). • 17. G. L. Semenza, Cell 98, 281-284 (1999). • 18. Hypoxia (<0.1% oxygen) was obtained in a workstation with O2, CO2 and temperature control (Ruskinn Technologies, Leeds, UK). For hypoxic harvest, buffers were preincubated in the chamber overnight. […]

[1] = system: rat SM-20 and human EGLN1 (PHD2), EGLN2 (PHD1), EGLN3 (PHD3); test: Recombinant enzymes (reticulocyte IVTT) promoting pVHL interaction with HIF-1α residues 549-582; type: biochemical; settings: all enzymes
Protocol: To test the role of these gene products in regulating the interaction between human HIFα sub-units and the VHL E3 ligase complex, we first produced the proteins by reticulocyte IVTT. […] After incubation with relevant enzyme, HIF-α substrates were mixed with extracts from 786-0/VHL cells that stably express HA tagged human pVHL, and tested for interaction by anti-HA immunoprecipitation.

EGL-9 = test: Recombinant EGL-9 modification of HIF-1, HA.VHL-1 capture; type: biochemical, C. elegans
Protocol: Preincubation of C. elegans HIF-1 with worm extract or recombinant EGL-9 was for 30 min at 25° C. Preincubation of mammalian HIF-α polypeptides with cell extract or recombinant enzymes was at 37° C. for 10-30 min unless otherwise stated. For assays of recombinant enzymes, 2-oxoglutarate (2 mM), iron (100 μM), and ascorbate (2 mM) were added to the reaction buffer unless otherwise indicated. Reactions performed in hypoxia were in the stated atmospheric oxygen concentration (balance nitrogen) obtained using a controlled environment Invivo2 400 hypoxia work-station (Ruskinn Technologies) and buffers pre-equilibrated with the appropriate atmosphere. Reactions (50 μl) were performed in open Eppendorf tubes with mixing and stopped by the addition of 20 volumes desferrioxamine (100 μM}.
To test whether EGL-9 could act directly on HIF-1, further preparations were made by baculoviral expression in insect cells and by expression as maltose binding protein ([…]) fusion proteins in E. coli. Since full length MBP/EGL-9 protein was insoluble when expressed in E. coli we prepared an N-terminal truncation containing residues 359-723 (MBP/ΔN.EGL-9) that preserved the predicted catalytic domain and had HIF.1 modifying activity when expressed as an IVTT. […]

[2] = system: collagen prolyl-hydroxylase (CPH); settings: cited from earlier work
[3] = system: HIF hydroxylase (HPH activity); test: HIF hydroxylase (HPH) inhibition, statements of the description; type: biochemical
[4] = system: HIF-α prolyl-hydroxylase (HIF-PH) of cell extract; test: Modifying activity (HIF-PH) of cell extract on HIF substrate (Gal/HIF-1α549-582/VP16 or 19:WT), pVHL capture assay; type: biochemical, mammalian
Method in brief: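 Immunopurified HIF-1α substrate (19:WT polypeptide or Gal/HIF-1α549-582/VP16) on beads was incubated with cell extract under test conditions, washed, and tested for capture of 35S-labelled IVTT pVHL, visualised by fluorography. Hydroxylation activity was inferred from pVHL capture.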

intact cells = test: Entry into intact cells; type: cell-based
Excerpt: In this Example it is shown that HIF-1α protein and the endogenous HIF target gene encoding carbonic anhydrase 9 (CA-9) are induced by exposure of cells to the PHD inhibitor, dimethyl oxalylglycine. […] The esterified form, dimethyloxalylglycine, has therefore been used to deliver the compound to tissue culture cells.
Application of an esterified form, dimethyloxalylglycine, to tissue culture cells results in stabilisation of HIF alpha chains (Example 1) and activation of transcription of endogenous HIF target genes (Example 5).

HeLa cells = test: Hypoxic induction of total HIF-PH activity in HeLa cell lysates, pVHL capture assay; type: cell-based, human; settings: hypoxia 16 hours

Structure (SMILES)	Enzyme activity (modification of HIF-1 to VHL binding form) (EGLN-2 and EGLN-3)	capture of HIF-1α by pVHL.HA (HIF-α/pVHL interaction)	inhibition of enzyme activity promoting pVHL interaction with HIF-1α 549-582 [1]	effect on recombinant EGL-9 activity (EGL-9)	inhibition of CPH [2]	inhibition of HIF hydroxylase / HPH [3]	inhibition of HIF hydroxylase / HPH ([3]; listed as N-oxaloglycine)	Inhibition of pVHL capture ([4]; 0-2000 μM inhibitor, RCC4 cell extract, 5 or 100 μM FeCl2)	inhibition of modifying activity of cell extract on 19:WT (pVHL capture) ([4]; N-oxalylglycine 0.2-1 mM, overcome by 5 mM 2-oxoglutarate)	ability to enter intact cells (intact cells)	effect on induction of total HIF-PH activity by hypoxia (HeLa cells)
[Cl-].[Cl-].[Co+2] [Co(II), cobaltous chloride]	diminished	greatly diminished capture	strongly inhibited	direct inhibition	–	–	–	–	–	–	–
O=C(O)CNC(=O)C(=O)O [N-oxalylglycine]	diminished	–	strongly inhibited	–	inhibitor	act as inhibitors	inhibitor	increased with the concentration of inhibitor	completely inhibit	incapable of entering intact cells	–
Cc1c2oc3c(C)ccc(C(=O)N[C@@H]4C(=O)N[C@H](C(C)C)C(=O)N5CCC[C@H]5C(=O)N(C)CC(=O)N(C)[C@@H](C(C)C)C(=O)O[C@@H]4C)c3nc-2c(C(=O)N[C@@H]2C(=O)N[C@H](C(C)C)C(=O)N3CCC[C@H]3C(=O)N(C)CC(=O)N(C)[C@@H](C(C)C)C(=O)O[C@@H]2C)c(N)c1=O [actinomycin D] (I: T[dV]P[Sar][NMeV] / II: T[dV]P[Sar][NMeV]; ester I:1-I:C, II:1-II:C; linker I:N-II:N via Actinocin(9to1))	–	–	–	–	–	–	–	–	–	–	blocked
